Data published in patent publication US12428396B2, “Fused pyridine ring derivative, preparation method therefor, and pharmaceutical use thereof” (priority 2019, dated 2025).
Like-named read-outs stand apart in the source and are kept apart here.

Key:
[1] = Beagle pharmacokinetic study (ig/sc/iv, plasma LC/MS/MS); type: in vivo, beagles; conditions: for AUC(0-t) / half-life / Cmax: dog, plasma; for AUC(0-t): read-out: Area under curve AUC0-72; for half-life: read-out: Half life T½ (converted); for Cmax: read-out: Plasma concentration Cmax
Procedure: Taking beagles as test animals, and the drug concentrations in dog plasma at various times after intragastric administration (ig)/subcutaneous injection (sc)/intravenous injection (iv) administration of the compound of Example 1-1 and Positive Control Example 1 were measured by using LC/MS/MS method. The pharmacokinetic performance in beagles of the compounds of the present disclosure was studied and the pharmacokinetic profile thereof was evaluated.
18 non-naïve beagles (999M-004, medicilon) with 7-12 kg, every 3 of which were in one group.
The intragastric administration group: a certain amount of the compounds was weighed, ethanol with a volume of 5% of the final volume, 20% PG, 45% PEG300 and 30% deionized water were added (the pH was adjusted to be about 2 with 0.01 N HCl), and the reaction mixture was subjected to ultrasonic stirring for uniform mixing to give an administration solution at a concentration of 0.8 mg/mL.
The subcutaneous injection administration group: a certain amount of the compounds was weighed, 2% aqueous poloxamer 188 solution with a proper volume was added, and the reaction mixture was subjected to ultrasonic stirring for uniform mixing to give a suspension administration solution at a concentration of 200 mg/mL.
The intravenous administration group: a certain amount of the compounds was weighed, 5% volume of DMSO, 30% PG, 30% PEG400 and 35% volume of normal saline were added, and the reaction mixture was subjected to vortex ultrasonic stirring for uniform mixing to give an administration solution at a concentration of 0.5 mg/mL.
Beagles were intragastrically administered with the compounds after fasting overnight, at a dose of 4.0 mg/kg and a volume of 5.0 mL/kg.
Beagles were subcutaneously injected with the compounds after fasting overnight, at a dose of 6.0 mg/kg and a volume of 0.03 mL/kg.
Beagles were intravenously injected with the compounds after fasting overnight, at a dose of 1.0 mg/kg and a volume of 2 mL/kg.
Beagles were intragastrically administered with the compound of Example 1-1/Positive Control Example 1, and 1 mL of blood was collected from the orbit before administration and at 0.25 h, 0.5 h, 1.0 h, 2.0 h, 4.0 h, 6.0 h, 8.0 h, 12.0 h, 24 h, 32 h, 48 h, 56 h and 72 h after administration, respectively, and placed in EDTA-K2 anticoagulant blood collection tubes, plasma was centrifuged (centrifugal force: 2200 g, centrifugation time: 10 min, 2-8° C.), and stored at −80° C., and food intake was resumed 3 h after administration.
The compound of Example 1-1/Positive Control Example 1 was subcutaneously injected to beagles, and 1 mL of blood was collected before administration and at 1.0 h, 3.0 h, 8.0 h, 24 h, 48 h, 72 h, 96 h, 168 h, 336 h, 432 h and 504 h after administration, respectively, and placed in EDTA-K2 anticoagulant blood collection tubes, plasma was centrifuged (centrifugal force: 2200 g, centrifugation time: 10 min, 2-8° C.), and stored at −80° C., and food intake was resumed 3 h after administration.
The content of the compound to be tested in the plasma of beagles was determined after the intragastric administration of the compounds at different concentrations: 20 μL of the plasma in beagles at each time after administration was taken, 200 μL of methanol containing internal standard (100 ng/mL) was added, the reaction mixture was subjected to vortex mixing for 1 min, and centrifuged for 7 min (centrifugal force: 18000 g), and 1 μL of the supernatant was taken from the plasma sample for LC/MS/MS analysis. […]

[2] = Monkey pharmacokinetic study (iv, plasma LC/MS/MS); type: in vivo, cynomolgus monkeys; conditions: cynomolgus monkey, intravenous injection, 1 mg/kg
Procedure: Taking cynomolgus monkeys as test animals and the drug concentrations in monkey plasma at various times after intravenous injection (iv) of the compounds of Example 1-1 and Positive Control Example 1 were measured by using LC/MS/MS method. The pharmacokinetic performance in cynomolgus monkeys of the compounds of the present disclosure was studied and the pharmacokinetic profile thereof was evaluated.
6 non-naïve cynomolgus monkeys (999M-004, medicilon) with 2-5 kg, every 3 of which were in one group.
A certain amount of the compounds was weighed, 5% volume of DMSO, 30% PG, 30% PEG400 and 35% volume of normal saline were added, and the reaction mixture was subjected to vortex ultrasonic stirring for uniform mixing to give a clean administration solution at a concentration of 0.5 mg/mL.
Monkeys were intravenously injected with the compounds after fasting overnight, at a dose of 1.0 mg/kg and a volume of 2 mL/kg.
The compound of Example 1-1/Positive Control Example 1 was intravenously injected to monkeys, and 1 mL of blood was collected through femoral vein before administration and at 5 min, 0.25 h, 0.5 h, 1.0 h, 2.0 h, 4.0 h, 8.0 h, 12.0 h, 24 h, 32 h, 48 h, 56 h and 72 h after administration, respectively, and placed in EDTA-K2 anticoagulant blood collection tubes, plasma was centrifuged (centrifugal force: 2200 g, centrifugal time: 10 min, 2-8° C.), and stored at −80° C., and food intake was resumed 3 h after administration.

[3] = po, intragastric administration, 4 mg/kg
[4] = sc, subcutaneous injection, 6 mg/kg

- AUC(0-t) ([1]; intravenous injection, 1 mg/kg): 14700 ng·h/mL
- half-life ([1]; intravenous injection, 1 mg/kg): 13.7 h
- Cmax ([1]; intravenous injection, 1 mg/kg): 1110 ng/mL
- AUC(0-t) [1, 3]: 11200 ng·h/mL
- half-life [1, 3]: 23 h
- Cmax [1, 3]: 414 ng/mL
- AUC(0-t) [1, 4]: 17700 ng·h/mL
- Cmax [1, 4]: 54.6 ng/mL
- Clearance CLz/F ([1]; intravenous injection, 1 mg/kg): 1.1 mL/min/kg
- Clearance CLz/F [2]: 7.8 mL/min/kg
- AUC(0-t) ([2]; plasma, read-out: Area under curve AUC0-72): 2130 ng·h/mL
SMILES: CC(C)(C#Cc1ccc(-c2ccc(Cl)c3c(NS(C)(=O)=O)nn(CC(F)(F)F)c23)c([C@H](Cc2cc(F)cc(F)c2)NC(=O)Cn2nc(C(F)(F)F)c3c2C(F)(F)[C@@H]2C[C@H]32)n1)S(C)(=O)=O [Positive Control Example 1, N—((S)-1-(3-(4-chloro-3-(methylsulfonamido)-1-(2,2,2-trifluoroethyl)-1H-indazol-7-yl)-6-(3-methyl-3-(methylsulfonyl)but-1-yn-1-yl)pyridin-2-yl)-2-(3,5-difluorophenyl)ethyl)-2-((3bS,4aR)-5,5-difluoro-3-(trifluoromethyl)-3b,4,4a,5-tetrahydro-1H-cyclopropa[3,4]cyclopenta[1,2-c]pyrazol-1-yl)acetamide, reference compound]
